Measured values taken from patent US7122529B2, “Compounds that release nitric oxide at controlled rates upon photolysis” (The Johns Hopkins University, priority 2001, dated 2006).
Marks after values point to notes of the source that are not given here.

Tests used:
Assay type in all cases: physicochemical
[1] = Rate of NO release upon photolysis compared with thermal decay of 1 and 20; conditions: for rate of photochemical release of NO versus thermal decomposition of 1 and 20: 10 seconds photolysis, Xenon arc lamp long-pass 324 nm filter, 10 mM phosphate and acetate buffers
Description: This example describes the general procedure for the determination of the rate of NO release from compounds 6 and 9 upon photolysis. Stock solutions of compounds 6 and 9 were prepared to be 100 μM in acetonitrile, and of these 15 μL aliquots were diluted into to […] of aqueous solutions at the appropriate pH (10 mM phosphate and acetate buffers). The probe was allowed to equilibrate in the sample solution before 10 seconds of photolysis using a Xenon arc lamp with a long-pass 324 nm filter. The rate of NO release was then monitored over the appropriate time span. For comparison, the thermal decay of both compounds 1 and 20 were recorded under the same conditions as those of the photochemical experiments.
As shown, this pH dependence follows the same pH dependence for the release from authentic samples of diazeniumdiolate 1.

[2] = Electrochemical quantification of NO / diazeniumdiolate released upon photolysis of O2-benzyl diazeniumdiolates
Description: Analysis of the above described organic products produced following photolysis of the compounds was studied in argon and oxygen-saturated 90%–99% aqueous acetonitrile. Quantification of NO released upon photolysis was performed electrochemically with an inNO Nitric Oxide Measuring System using an amiNO-2000 probe (Innovative Instruments Inc., Tampa, Fla.). The amiNO-2000 probe was calibrated using ascorbic acid/sodium nitrite before and after NO measurements were conducted. In order to differentiate NO production arising from diazeniumdiolate from non-diazeniumdiolate derived NO, the dependence of diazeniumdiolate decomposition rate on pH was utilized. […] Aqueous solutions at pH 11 of the compounds were irradiated and then analyzed for NO. Any NO detected under these conditions must arise from a non-diazeniumdiolate pathway. For all compounds examined the amount of NO formed from such a pathway was negligible. To liberate NO associated with the photoreleased diazeniumdiolate, solutions were acidified with 1.0 M H2SO4 to a pH of between 2–3. In each case, the yield of NO was determined from a series of measurements following photolysis to a range of percent conversions. […] NO yields determined from these experiment along with the observation that compound 1 dissociates to give 1.5 equivalents of NO were used to derive yields of photoreleased diazeniumdiolates from the compounds studied.
Since Path B is favored with the addition of strong π-donating meta substituents, the dihydroxybenzyl derivative of compound 3, n=0, Y=H, R1=R3=R5=H, R2=R4=OH (O^2-3,5-dihydroxybenzyl substituted diazeniumdiolate) was studied in further detail. Consistent with the expected large effect of oxyanionic meta substitution, when compound 3, n=0, Y=H, R1=R3=R5=H, R2=R4=OH is irradiated (Rayonet, 300 nm) in an aqueous solution of pH 11.2 (containing 1% acetonitrile) to 5–35% conversion, the amount of NO detected corresponded to a yield of photoreleased diazeniumdiolate compound 1 of approximately 92%. A comparison of selected results observed with O^2-substituted diazeniumdiolate derivatives having the backbone of compound 3 is shown in FIG. 1. After photolysis of the compound (t=0 sec) there is no nitric oxide production.

[3] = Quantum yields of photolysis of compounds 2 and 3 (actinometry)
[4] = Quantum yields of photolysis of compounds 6 and 9; conditions: ~20 μM in 90–95% aqueous acetonitrile, below 40% conversion
[5] = Diazeniumdiolate / NO released upon photolysis of compounds 6 and 9 (electrochemical NO probe); conditions: 0.498 μM, 100% conversion; for % NO: Xenon arc lamp with long-pass 324 nm filter, NO liberated by acidification; for % Diazeniumdiolate: pH 12.2, Xenon arc lamp with long-pass 324 nm filter, derived with 1.5 / 1.8 eq NO
Description: This example describes a general procedure for the determination of diazeniumdiolate released upon photolysis of compounds 6 and 9. The amiNO-700 probe was calibrated using ascorbic acid/sodium nitrite before and after NO measurements were recorded. Calibration curves were prepared in order to relate current (detected by the instrument) with concentration of NO. Stock solutions of compounds 6 and 9 were prepared to be 100 μM in acetonitrile, and of these 15 μL aliquots were diluted into to 3 mL of a pH 12.2 aqueous solution. The resulting 0.498 μM solutions were photolyzed with a Xenon arc lamp and a long-pass 324 nm filter for lengths of time appropriate to reach 100% conversion (6–7 minutes for most compounds at this concentration). Under these basic conditions any diazeniumdiolate generated photochemically is stable, and neither sodium-1-(N,N-diethylamino)-1-diazen-1-ium-1,2-diolate (compound 1) or sodium-1-(piperidin-1-yl)-diazen-1-ium-1,2-diolate (compound 20) absorbs at wavelengths above 324 nm. No NO was measured electrochemically at this pH, indicating there are no photochemical paths that lead directly to NO. The NO associated with the photochemically generated diazeniumdiolate was liberated by the addition of 10 μL of 1.0 M sulfuric acid (final solution pH's were typically 2–3. Using the calibration curve and the fact that the amount of NO released upon thermal decomposition of compounds 1 and 20 was calculated to be 1.5 and 1.8 eq. respectively, the absolute percentage of diazeniumdiolate generated upon photolysis of compounds 6 and 9 was determined. FIG. 2 depicts the amount of nitric oxide produced upon photolysis from a selection of 1-methylnaphthyl and 2-methylnaphthyl-O^2-substituted diazeniumdiolates having a backbone of compounds 6 and 9.
Compounds 6 and 9 are soluble in 99% aqueous acetonitrile up to 20 μM and are thermally stable indefinitely at pH 4–11, 25° C. at this concentration. Analysis of the products following photolysis (Rayonet, 300 or 350 nm, Xenon arc lamp with a long-pass 324 nm filter) of compounds 6 and 9 in both argon- and oxygen-saturated 99% aqueous acetonitrile is summarized in Table 2 below. Quantification of NO released upon photolysis was performed electrochemically with an inNO Nitric Oxide Measuring System using an ami-700 probe (Innovative Instruments Inc., Tampa, Fla.).

[6] = Absolute amount of NO released from thermal decomposition of diazeniumdiolates 1 and 20; conditions: 0.15–0.66 μM in aqueous solution pH 12.2, acidified with 1.0 M sulfuric acid
Description: Determination of the absolute amount of NO released from the thermal decomposition of sodium-1-(N,N-diethylamino)-diazen-1-ium-1,2-diolate compound 1, and sodium-1-(piperidin-1-yl)-diazen-1-ium-1,2-diolate compound 20.
Stock solutions of both compounds 1 and 20 were prepared to be 100 μM in aqueous solution at pH=12.2. A series of μL aliquots of the stock solution were diluted into 3 mL of aqueous solution at pH=12.2 resulting in an array of concentrations from 0.15–0.66 μM. The probe was allowed to equilibrate in the sample solutions before the addition of 10 μL of 1.0 M sulfuric acid. The final concentration of NO in solution after complete decomposition was determined by the calibration curve, and a linear plot of NO released vs. initial concentration was obtained. By this method it was determined that compounds 1 and 20 release 1.5 and 1.8 eq. of NO respectively.

[7] = Lifespan of diazeniumdiolate 1 as a function of pH; conditions: room temperature
[8] = H2O/CH3CN 99/1, photolysis 300 nm, based on percent reactant converted, NO measured and 1.5 eq NO per diazeniumdiolate 1, estimated error ±5%
[9] = solvent H2O/CH3CN 0/100, photolysis 254 nm
[10] = solvent H2O/CH3CN 0/100, photolysis 300 nm
[11] = solvent H2O/CH3CN 99/1, photolysis 254 nm
[12] = solvent H2O/CH3CN 99/1, photolysis 300 nm

COc1cc2ccccc2cc1/C=C/CON=[N+]([O-])N1CCCCC1
rate of photochemical release of NO versus thermal decomposition of 1 and 20 [1]: consistent with the known thermal decays

CCN(CC)[N+]([O-])=NOCc1cccc(OC)c1 [3 (R2 = MeO, R4 = H), O^2-(3-methoxybenzyl)-1-(N,N-diethylamino)-diazen-1-ium-1,2-diolate]
% Diazeniumdiolate [2, 8]: 6%

CCN(CC)[N+]([O-])=NOCc1cccc(N(C)C)c1 [3 (R2 = NMe2, R4 = H), O^2-(3-dimethylaminobenzyl)-1-(N,N-diethylamino)-diazen-1-ium-1,2-diolate]
Quantum Yield [3, 9]: 0.60
Quantum Yield [3, 10]: 0.17
Quantum Yield [3, 11]: 0.25
Quantum Yield [3, 12]: 0.04
% Diazeniumdiolate [2, 8]: 35%

CCN(CC)[N+]([O-])=NOCc1cc(OC)cc(OC)c1 [3 (R2 = R4 = MeO), O^2-(3,5-dimethoxybenzyl)-1-(N,N-diethylamino)-diazen-1-ium-1,2-diolate]
Quantum Yield [3, 9]: 0.35
Quantum Yield [3, 11]: 0.17
% Diazeniumdiolate [2, 8]: 10%

CCN(CC)[N+]([O-])=NOCc1cc(N(C)C)cc(N(C)C)c1 [3 (R2 = R4 = NMe2), O^2-(3,5-bis-dimethylaminobenzyl)-1-(N,N-diethylamino)-diazen-1-ium-1,2-diolate]
Quantum Yield [3, 9]: 0.53
Quantum Yield [3, 10]: 0.18
Quantum Yield [3, 11]: 0.26
Quantum Yield [3, 12]: 0.05
% Diazeniumdiolate [2, 8]: 47%

CCN(CC)[N+]([O-])=NOCc1cc(O)cc(O)c1 [3 (R2 = R4 = OH), O^2-(3,5-dihydroxybenzyl)-1-(N,N-diethylamino)-diazen-1-ium-1,2-diolate]
Quantum Yield [3, 12]: 0.87
% Diazeniumdiolate ([2]; H2O/CH3CN 99/1, photolysis 300 nm at pH 11.2, 5–35% conversion): 92^d %

CCN(CC)[N+]([O-])=NOCc1cccc2ccccc12 [6 (n = 0, Y = R1–R7 = H), O^2-(1-naphthylmethyl)-1-(N,N-diethylamino)-1-diazen-1-ium-1,2-diolate]
Quantum Yield ([4]; 300 nm (rayonet reactor)): 0.01^a
% NO [5]: 1.5%
% Diazeniumdiolate [5]: 1%

CCN(CC)[N+]([O-])=NOC/C=C/c1cccc2ccccc12 [6 (n = 1, Y = R1–R7 = H)]
Quantum Yield ([4]; 300 nm (rayonet reactor)): 0.12^a
% NO [5]: 37.5%
% Diazeniumdiolate [5]: 25%

CCN(CC)[N+]([O-])=NOCc1cc2ccccc2cc1OC [9 (n = 0, Y = R1, R3–R7 = H, R2 = OMe), O^2-(3-methoxy-2-naphthylmethyl)-1-(N,N-diethylamino)-diazen-1-ium-1,2-diolate]
Quantum Yield ([4]; 300 nm (rayonet reactor)): 0.02^a
% NO [5]: 30%
% Diazeniumdiolate [5]: 20%
% Diazeniumdiolate ([5]; listed as 9 (where n=0, Y=R1, R3–R7=H, R2=OMe, X=diethylamino)): 50%

CCN(CC)/[N+]([O-])=N/[O-].[Na+] [Compound 1, sodium-1-(N,N-diethylamino)-diazen-1-ium-1,2-diolate]
NO released upon thermal decomposition [6]: 1.5 eq.
lifespan ([7]; pH 3): several seconds
lifespan ([7]; pH 11): several hours
rate of release of nitric oxide from photochemically generated diazeniumdiolate ([1]; FIG. 5, varied pH): pH dependent

[Na+].[O-]/N=[N+](\[O-])N1CCCCC1 [Compound 20, sodium-1-(piperidin-1-yl)-diazen-1-ium-1,2-diolate]
NO released upon thermal decomposition [6]: 1.8 eq.

CCN(CC)[N+]([O-])=NOC/C=C/c1cc2ccccc2cc1OC [O^2-(3-(3-methoxy-2-naphthyl)-E-2-propenyl)-1-(N,N-diethylamino)-diazen-1-ium-1,2-diolate]
% Diazeniumdiolate [5]: 50%
rate of photochemical release of NO versus thermal decomposition of 1 and 20 [1]: consistent with the known thermal decays

CCN(CC)[N+]([O-])=NOC/C=C/c1cccc2c(OC)ccc(OC)c12 [O^2-(3-(5,8-dimethoxy-1-naphthyl)-E-2-propenyl)-1-(N,N-diethylamino)-diazenen-1-ium-1,2-diolate]
Quantum Yield ([4]; 355 nm (ND:YAG laser)): 0.66^b
% NO [5]: 143%
% Diazeniumdiolate [5]: 95%

CCN(CC)[N+]([O-])=NOCc1cccc2c(OC)ccc(OC)c12 [O^2-(5,8-dimethoxy-1-naphthylmethyl)-1-(N,N-diethylamino)-diazen-1-ium-1,2-diolate]
Quantum Yield ([4]; 355 nm (ND:YAG laser)): 0.12^b
% NO [5]: 60%
% Diazeniumdiolate [5]: 40%

CCN(CC)[N+]([O-])=NOCc1ccc2c(OC)ccc(OC)c2c1 [O^2-(5,8-dimethoxy-2-naphthylmethyl)-1-(N,N-diethylamino)-diazen-1-ium-1,2-diolate]
Quantum Yield ([4]; 355 nm (ND:YAG laser)): 0.05^b
% NO [5]: 51%
% Diazeniumdiolate [5]: 34%
